Like-named read-outs stand apart in the source and are kept apart here.
What was measured:
H82 cells = experiment: cells; assay type: cell-based; settings: Homo sapiens
Protocol: CellTiter-Glo (CTG) is a rapid cell viability test method based on ATP detection. […] Adenosine triphosphate (ATP) participates in various enzymatic reactions in organisms and is an indicator of living cell metabolism. Its content directly reflects the number of living cells and cell status. During the experiment, equal volume of CTG reagent is added to the cultured cells to measure the luminescence value. The chemiluminescent signal value is proportional to the amount of ATP, thus reflecting the number of viable cells. Therefore, cell viability can be obtained by detecting the ATP content. Compounds that affect cell viability will inhibit cell viability in a concentration-dependent manner, allowing a curve to be fitted to obtain the IC50 value.
The experimental procedure is as follows: • 11. Place the cell suspension in a 15 mL centrifuge tube, centrifuge at 1000 rpm for 5 min at room temperature, discard the supernatant, and collect the cell pellet. • 12. Resuspend the cell pellet with preheated complete cell culture medium (RPMI1640+10%FBS+1%PS), and use a Countess® automated cell counter to detect cell viability and density. […] Transfer the compound solution to a 96-well plate seeded with cells (final concentration of DMSO 0.1%), and place in a cell incubator at 37°C, 5% CO2 for 6 days. • 15. […] Protect from light during the whole process. Perform optical signal readings using a SpectraMax i3x reader. • 16. Data analysis: Remaining activity (%) = 100% * (1 - ((LumDMSO - Lummedium) - Lumsample) / (LumDMSO - LumPBS/medium)). Use GraphPad Prism 9.0 software to draw an S-shaped dose-survival rate curve and calculate the IC50 value using a nonlinear regression model.

AURKA = target: T1, AURKA (Homo sapiens, UniProt O14965); assay type: cell-based
T1 construct: endogenous in cells; host or cells: Jurkat cells
T1 sequence (O14965 1-403): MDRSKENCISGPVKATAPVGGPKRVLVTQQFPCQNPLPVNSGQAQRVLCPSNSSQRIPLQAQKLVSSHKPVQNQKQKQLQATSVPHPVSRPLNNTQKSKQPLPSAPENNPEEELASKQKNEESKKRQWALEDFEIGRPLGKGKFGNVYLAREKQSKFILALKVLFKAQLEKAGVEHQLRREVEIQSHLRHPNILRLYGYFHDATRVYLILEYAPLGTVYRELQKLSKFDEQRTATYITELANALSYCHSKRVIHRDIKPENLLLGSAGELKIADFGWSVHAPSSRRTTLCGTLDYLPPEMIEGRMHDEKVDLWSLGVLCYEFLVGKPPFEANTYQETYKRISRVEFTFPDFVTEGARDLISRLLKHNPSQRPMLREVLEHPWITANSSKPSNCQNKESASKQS
Description: WB is a classical biochemical experimental method used to detect the abundance of a target protein in a sample of cells or biological tissue. It relies on specific antigen-antibody binding to detect protein signals from the sample processed by gel electrophoresis: the protein specifically binds to a primary antibody at an epitope; the primary antibody is then conjugated with a secondary antibody to amplify the signal cascade; the signal is read out by chemiluminescent or fluorescent detection. The intracellular protein content is ultimately characterized by the intensity of the optical signals. […] The DC50 value can be calculated by curve fitting of the protein WB exposure signals.
The experimental procedure is as follows: • 1. Seed Jurkat cells into a 12-well plate at 1×10^6 cells/500 µL/well. • 2. Mix the culture medium with the compound to a concentration that is twice the desired final concentration. […] Transfer the cell suspension to a centrifuge tube. Rinse the 12-well plate with PBS and then transfer the PBS from the plate to the same centrifuge tube. Centrifuge at 3000 rpm for 5 min at room temperature. Aspirate the supernatant using a vacuum pump. […] Lyse on ice for 20 min. • 4. Centrifuge the lysed sample at 13000 rpm for 20 min at 4°C. Mix the supernatant with 5× protein loading buffer. Boil at 100°C for 5 min and then cool. Store the denatured protein sample at -20°C. • 5. […] Run electrophoresis at 80 V for 20 min, and then at 120 V constant voltage for 60 min. • 6. Transfer the protein onto a nitrocellulose membrane in an ice bath at 250 mA constant current for 90 min. • 7. […] Incubate with a primary antibody overnight at 4°C. • 9. […] Incubate with a secondary antibody for 1-2 h at room temperature. • 10. […] Expose and image the membrane using a LICOR Odyssey DLx imager.

[1] = NCI-H82, H82 cells, 4000 cells/well, CellTiter-Glo, read-out: IC50 in H82 Cells
[2] = 100 nM compound, Jurkat cells, 24 h, Table 2
[3] = 1 µM compound, Jurkat cells, 24 h, Table 2
[4] = NCI-H82, read-out: IC50 in H82 Cells

Structure (SMILES) | IC50 (H82 cells; [1]) [nM] | Percentage of AURKA Degradation Induced by 100 nM Compound in Jurkat Cells (AURKA; [2]) | Percentage of AURKA Degradation Induced by 1 µM Compound in Jurkat Cells (AURKA; [3]) | IC50 (H82 cells; [4]) [nM] | Percentage of AURKA Degradation Induced by 100 nM Compound in Jurkat Cells (AURKA) | Percentage of AURKA Degradation Induced by 1 µM Compound in Jurkat Cells (AURKA)
O=C1CCN(c2ccc(N3CC(N4CCN(Cc5ccc(Nc6ncc7c(n6)-c6ccc(Cl)cc6C(c6c(F)cccc6F)=NC7)cc5)CC4)C3)nc2)C(=O)N1 [Compound A101] | < 1000 | +++ (Degradation > 70%) | +++ (Degradation > 70%) |  |  | 
O=C1CCN(c2ccc(N3CCN(CCCOc4cccc(Nc5ncc6c(n5)-c5ccc(Cl)cc5C(c5c(F)cccc5F)=NC6)c4)CC3)cc2)C(=O)N1 [Compound A102] | < 1000 | + (Degradation ≤ 30%) | + (Degradation ≤ 30%) |  |  | 
O=C1CCN(c2ccc(N3CCN(CCC(=O)Nc4ccc(Nc5ncc6c(n5)-c5ccc(Cl)cc5C(c5c(F)cccc5F)=NC6)cc4)CC3)cc2)C(=O)N1 [Compound A104] | < 1000 | +++ (Degradation > 70%) | +++ (Degradation > 70%) |  |  | 
Cn1c(CN2CCN(c3ccc(N4CCC(=O)NC4=O)cc3)CC2)cnc1-c1ccc(Nc2ncc3c(n2)-c2ccc(Cl)cc2C(c2c(F)cccc2F)=NC3)cc1 [Compound A106] | < 1000 | +++ (Degradation > 70%) | +++ (Degradation > 70%) |  |  | 
O=C1CCN(c2ccc(NCCN3CCn4c(cnc4-c4ccc(Nc5ncc6c(n5)-c5ccc(Cl)cc5C(c5c(F)cccc5F)=NC6)cc4)C3)cc2)C(=O)N1 [Compound A107] | < 1000 | ++ (30% < Degradation ≤ 70%) | ++ (30% < Degradation ≤ 70%) |  |  | 
O=C1CCN(c2ccc(N3CCC4(CC3)CC(NC(=O)c3ccc(Nc5ncc6c(n5)-c5ccc(F)cc5C(c5c(F)cccc5F)=NC6)cc3)C4)nc2)C(=O)N1 [Compound A109] | < 1000 | ++ (30% < Degradation ≤ 70%) | ++ (30% < Degradation ≤ 70%) |  |  | 
Cc1cc(N2CCC3(CC2)CC(NC(=O)c2ccc(Nc4ncc5c(n4)-c4ccc(Cl)cc4C(c4c(F)cccc4F)=NC5)cc2)C3)ncc1N1CCC(=O)NC1=O [Compound A110] | < 1000 | ++ (30% < Degradation ≤ 70%) | ++ (30% < Degradation ≤ 70%) |  |  | 
Cc1nc(N2CCC3(CC2)CC(NC(=O)c2ccc(Nc4ncc5c(n4)-c4ccc(Cl)cc4C(c4c(F)cccc4F)=NC5)cc2)C3)ccc1N1CCC(=O)NC1=O [Compound A112] | < 1000 | +++ (Degradation > 70%) | +++ (Degradation > 70%) |  |  | 
O=C1CCN(c2ccc(N3CCC4(CC3)CC(NC(=O)c3ccc(Nc5ncc6c(n5)-c5ccc(C7CC7)cc5C(c5c(F)cccc5F)=NC6)cc3)C4)nc2)C(=O)N1 [Compound A115] | < 1000 | +++ (Degradation > 70%) | +++ (Degradation > 70%) |  |  | 
O=C1CCN(c2ccc(N3CCC4(CC3)CC(NC(=O)c3ccc(Nc5ncc6c(n5)-c5ccccc5C(c5c(F)cccc5F)=NC6)cc3)C4)nc2)C(=O)N1 [Compound A116] | < 1000 | +++ (Degradation > 70%) | +++ (Degradation > 70%) |  |  | 
Cc1ccc2c(c1)C(c1c(F)cccc1F)=NCc1cnc(Nc3ccc(C(=O)NC4CC5(CCN(c6ccc(N7CCC(=O)NC7=O)cn6)CC5)C4)cc3)nc1-2 [Compound A118] | < 1000 | ++ (30% < Degradation ≤ 70%) | +++ (Degradation > 70%) |  |  | 
O=C1CCN(c2ccc(C3CN(C4CN(C(=O)c5ccc(Nc6ncc7c(n6)-c6ccc(Cl)cc6C(c6c(F)cccc6F)=NC7)cc5)C4)C3)nc2)C(=O)N1 [Compound A120] |  | + (Degradation ≤ 30%) | + (Degradation ≤ 30%) | < 1000 |  | 
O=C1CCN(c2ccc(N3CCN(Cc4cnc(-c5ccc(Nc6ncc7c(n6)-c6ccc(Cl)cc6C(c6c(F)cccc6F)=NC7)cc5)[nH]4)CC3)cc2)C(=O)N1 [Compound A121] | < 1000 | +++ (Degradation > 70%) | ++ (30% < Degradation ≤ 70%) |  |  | 
COc1ccc2c(c1)C(c1c(F)cccc1F)=NCc1cnc(Nc3ccc(C(=O)NC4CC5(CCN(c6ccc(N7CCC(=O)NC7=O)cn6)CC5)C4)cc3)nc1-2 [Compound A122] | < 1000 | +++ (Degradation > 70%) | +++ (Degradation > 70%) |  |  | 
O=C1CCN(c2ccc(N3CCN(CC#Cc4ccc(Nc5ncc6c(n5)-c5ccc(Cl)cc5C(c5c(F)cccc5F)=NC6)cc4)CC3)cc2)C(=O)N1 [Compound A124] | < 1000 | + (Degradation ≤ 30%) | + (Degradation ≤ 30%) |  |  | 
O=C1CCN(c2cccc(N3CCN(CCOc4cccc(Nc5ncc6c(n5)-c5ccc(Cl)cc5C(c5c(F)cccc5F)=NC6)c4)CC3)c2)C(=O)N1 [Compound A125] | < 1000 | ++ (30% < Degradation ≤ 70%) | +++ (Degradation > 70%) |  |  | 
O=C1CCN(c2cccc(C3CN(CC#Cc4cccc(Nc5ncc6c(n5)-c5ccc(Cl)cc5C(c5c(F)cccc5F)=NC6)c4)C3)c2)C(=O)N1 [Compound A126] | < 1000 | + (Degradation ≤ 30%) | + (Degradation ≤ 30%) |  |  | 
O=C1CCN(c2cccc(N3CCC(C#Cc4cccc(Nc5ncc6c(n5)-c5ccc(Cl)cc5C(c5c(F)cccc5F)=NC6)c4)CC3)c2)C(=O)N1 [Compound A127] |  |  |  | < 1000 | +++ (key: +: Degradation ≤ 30%; ++: 30% < Degradation ≤ 70%; +++: Degradation > 70%) | +++ (key: +: Degradation ≤ 30%; ++: 30% < Degradation ≤ 70%; +++: Degradation > 70%)
O=C1CCN(c2ccc(N3CCC4(CC3)CC(NC(=O)c3ccc(Nc5ncc6c(n5)-c5ccc(Cl)cc5C(c5ccccn5)=NC6)cc3)C4)nc2)C(=O)N1 [Compound A128] | < 1000 | +++ (Degradation > 70%) | +++ (Degradation > 70%) |  |  | 
Cc1c(N2CCN(CCC#Cc3cccc(Nc4ncc5c(n4)-c4ccc(Cl)cc4C(c4c(F)cccc4F)=NC5)c3)CC2)cccc1N1CCC(=O)NC1=O [Compound A129] | < 1000 | +++ (Degradation > 70%) | +++ (Degradation > 70%) |  |  | 
